Reference: US20240383886A1, “Protein Tyrosine Phosphatase Degraders and Methods of Use Thereof” (CALICO LIFE SCIENCES LLC, priority 2019, published 2024)

Columns and labels:
[1] = target: T1, PTPN2 (Homo sapiens, UniProt P17706); test: HiBiT-Degradation 293T.109 PTPN2 (Nano-Glo HiBiT Lytic Assay); format: cell-based; conditions: 293T.109 (HiBiT-PTPN2) cells, 24.0 hours
T1 construct: expressed in transfected cells; host or cells: 293T (293T.109 HiBiT-PTPN2 line; parental 293T WT from ATCC)
T1 sequence (P17706 1-415): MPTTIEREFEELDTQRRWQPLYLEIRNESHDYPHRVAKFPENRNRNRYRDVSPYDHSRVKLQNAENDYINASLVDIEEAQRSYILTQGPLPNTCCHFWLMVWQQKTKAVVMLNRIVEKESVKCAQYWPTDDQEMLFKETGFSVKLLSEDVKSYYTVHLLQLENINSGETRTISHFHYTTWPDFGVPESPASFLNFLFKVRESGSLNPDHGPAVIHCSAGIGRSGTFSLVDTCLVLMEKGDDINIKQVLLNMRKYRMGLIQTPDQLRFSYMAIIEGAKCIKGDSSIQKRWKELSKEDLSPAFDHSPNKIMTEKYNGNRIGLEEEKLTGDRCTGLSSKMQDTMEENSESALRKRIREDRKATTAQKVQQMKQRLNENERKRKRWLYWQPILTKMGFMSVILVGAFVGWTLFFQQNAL
Excerpt: Dulbecco's modified Eagle medium (DMEM) without phenol red and fetal bovine serum (FBS) were purchased from Gibco (Grand Island, NY, USA). Nano-Glo® HiBIT Lytic Assay System was purchased from Promega (Madison, WI, USA). 293T.109 (HiBiT-PTPN2) cell line was generated by ectopically expressing PTPN2 with N-terminal HiBiT fusion tag in 293T WT cell line purchased from ATCC (Manassas, VA, USA). Cell culture flasks and 384-well microplates were acquired from VWR (Radnor, PA, USA).
PTPN2 degradation was determined based on quantification of luminescent signal using Nano-Glo® HiBIT Lytic Assay kit. Test compounds were added to the 384-well plate from a top concentration of 10 μM with 11 points, half log titration in duplicates. 293T.109 cells were added into 384-well plates at a cell density of 5000 cells per well. The plates were kept at 37° C. with 5% CO2 for 24 hours. The cells treated in the absence of the test compound were the negative control and the cells without Nano-Glo® HiBiT Lytic reagent were the positive control. After 24-hour incubation, Nano-Glo® HiBIT Lytic Assay reagents were added to the cells. Luminescence was acquired on EnVision™ Multilabel Reader (PerkinElmer, Santa Clara, CA, USA).

[2] = test system: PTPN2; test: HiBiT-Degradation B16F10.4 PTPN2; format: cell-based; conditions: B16F10.4 cells, 24.0 hours

SMILES | DC50 [1] [nM] | DC50 [2] [nM]
O=C(CCCCCn1cc(CNc2cccc3c2C(=O)N(C2CCC(=O)NC2=O)C3=O)nn1)NCCOc1ccc2cc(O)c(N3CC(=O)NS3(=O)=O)cc2c1 (stereo not drawn) [Example 51] | ≥ 1000 | 
Cn1c(=O)n(C2CCC(=O)NC2=O)c2ccc([C@H]3CC[C@@H](CC(=O)Nc4ccc5c(F)c(N6CC(=O)NS6(=O)=O)c(O)cc5c4)CC3)cc21 (single isomer, unassigned) [Example 81a, N-(6-(1,1-dioxido-4-oxo-1,2,5-thiadiazolidin-2-yl)-5-fluoro-7-hydroxynaphthalen-2-yl)-2-((1s,4s)-4-(1-(2,6-dioxopiperidin-3-yl)-3-methyl-2-oxo-2,3-dihydro-1H-benzo[d]imidazol-5-yl)cyclohexyl)acetamide] | 10 to 50 | 10 to 50
Cn1c(=O)n(C2CCC(=O)NC2=O)c2ccc(C3CCN(CC(=O)NCCOc4ccc5cc(O)c(N6CC(=O)NS6(=O)=O)c(F)c5c4)CC3)cc21 (stereo not drawn) [Example 4, N-(2-((7-(1,1-dioxido-4-oxo-1,2,5-thiadiazolidin-2-yl)-8-fluoro-6-hydroxynaphthalen-2-yl)oxy)ethyl)-2-(4-(1-(2,6-dioxopiperidin-3-yl)-3-methyl-2-oxo-2,3-dihydro-1H-benzo[d]imidazol-5-yl)piperidin-1-yl)acetamide] | 50 to 200 | ≥ 1000
CN(c1ccc(C2CCN(CC(=O)NCCOc3ccc4cc(O)c(N5CC(=O)NS5(=O)=O)c(F)c4c3)CC2)cc1)C1CCC(=O)NC1=O (stereo not drawn) [Example 94, 2-[4-[4-[(2,6-dioxo-3-piperidyl)-methyl-amino]phenyl]-1-piperidyl]-N-[2-[[8-fluoro-6-hydroxy-7-(1,1,4-trioxo-1,2,5-thiadiazolidin-2-yl)-2-naphthyl]oxy]ethyl]acetamide] | 200 to 1000 | 200 to 1000
Cn1nc(C2CCC(=O)NC2=O)c2ccc(N3CCC(CC(=O)Nc4ccc5c(F)c(N6CC(=O)NS6(=O)=O)c(O)cc5c4)CC3)cc21 (stereo not drawn) [Example 167, 2-[1-[3-(2,6-dioxo-3-piperidyl)-1-methyl-indazol-6-yl]-4-piperidyl]-N-[5-fluoro-7-hydroxy-6-(1,1,4-trioxo-1,2,5-thiadiazolidin-2-yl)-2-naphthyl]acetamide] | 50 to 200 | 50 to 200
Cn1nc(C2CCC(=O)NC2=O)c2ccc(C3CCN(CC(=O)NCCOc4ccc5cc(O)c(N6CC(=O)NS6(=O)=O)c(F)c5c4)CC3)cc21 (stereo not drawn) [Example 8, 2-[4-[3-(2,6-dioxo-3-piperidyl)-1-methyl-indazol-6-yl]-1-piperidyl]-N-[2-[[8-fluoro-6-hydroxy-7-(1,1,4-trioxo-1,2,5-thiadiazolidin-2-yl)-2-naphthyl]oxy]ethyl]acetamide] | 10 to 50 | 50 to 200
O=C1CCC(N2Cc3c(NCc4cn(CCC(=O)Nc5ccc6c(F)c(N7CC(=O)NS7(=O)=O)c(O)cc6c5)nn4)cccc3C2=O)C(=O)N1 (stereo not drawn) [Example 62] | 200 to 1000 | ≥ 1000
O=C1CCC(N2C(=O)c3cccc4c(C5CCN(CC(=O)N6CC(Oc7ccc8cc(O)c(N9CC(=O)NS9(=O)=O)c(F)c8c7)C6)CC5(F)F)ccc2c34)C(=O)N1 (stereo not drawn) [Example 165, 3-[6-[3,3-difluoro-1-[2-[3-[[8-fluoro-6-hydroxy-7-(1,1,4-trioxo-1,2,5-thiadiazolidin-2-yl)-2-naphthyl]oxy]azetidin-1-yl]-2-oxo-ethyl]-4-piperidyl]-2-oxo-benzo[cd]indol-1-yl]piperidine-2,6-dione] | 10 to 50 | 50 to 200
CC(C)n1c(=O)n(C2CCC(=O)NC2=O)c2ccc(C3CCN(CC(=O)Nc4ccc5c(F)c(N6CC(=O)NS6(=O)=O)c(O)cc5c4)CC3)cc21 (stereo not drawn) [Example 24, 2-[4-[1-(2,6-dioxo-3-piperidyl)-3-isopropyl-2-oxo-benzimidazol-5-yl]-1-piperidyl]-N-[5-fluoro-7-hydroxy-6-(1,1,4-trioxo-1,2,5-thiadiazolidin-2-yl)-2-naphthyl]acetamide] | 50 to 200 | 50 to 200
Cn1c(=O)n(C2CCC(=O)NC2=O)c2ccc(C3CCN(CCC(=O)N4CC[C@H](c5ccc6cc(O)c(N7CC(=O)NS7(=O)=O)c(F)c6c5)C4)CC3)cc21 (stereo partly drawn) [Example 144] | 10 to 50 | 50 to 200
Cn1c(=O)n(C2CCC(=O)NC2=O)c2ccc(Nc3ccc(CC(=O)Nc4ccc5c(F)c(N6CC(=O)NS6(=O)=O)c(O)cc5c4)cn3)cc21 (stereo not drawn) [Example 168, N-(6-(1,1-dioxido-4-oxo-1,2,5-thiadiazolidin-2-yl)-5-fluoro-7-hydroxynaphthalen-2-yl)-2-(6-((1-(2,6-dioxopiperidin-3-yl)-3-methyl-2-oxo-2,3-dihydro-1H-benzo[d]imidazol-5-yl)amino)pyridin-3-yl)acetamide] | 50 to 200 | 10 to 50
Cn1c(=O)n(C2CCC(=O)NC2=O)c2ccc(C3CCN(Cc4cnn(-c5ccc6cc(O)c(N7CC(=O)NS7(=O)=O)c(F)c6c5)c4)CC3)cc21 (stereo not drawn) [Example 125, 3-[5-[1-[[1-[8-fluoro-6-hydroxy-7-(1,1,4-trioxo-1,2,5-thiadiazolidin-2-yl)-2-naphthyl]pyrazol-4-yl]methyl]-4-piperidyl]-3-methyl-2-oxo-benzimidazol-1-yl]piperidine-2,6-dione] | 50 to 200 | 200 to 1000
Cn1c(=O)n(C2CCC(=O)NC2=O)c2ccc(N3CCC(CCNC(=O)Nc4ccc5c(F)c(N6CC(=O)NS6(=O)=O)c(O)cc5c4)CC3)cc21 (stereo not drawn) [Example 181] | 10 to 50 | 50 to 200
O=C1CCC(N2Cc3c(NCC(=O)N4CCC(C(=O)NCCOc5ccc6cc(O)c(N7CC(=O)NS7(=O)=O)c(F)c6c5)CC4)cccc3C2=O)C(=O)N1 (stereo not drawn) [Example 2, N-(2-((7-(1,1-dioxido-4-oxo-1,2,5-thiadiazolidin-2-yl)-8-fluoro-6-hydroxynaphthalen-2-yl)oxy)ethyl)-1-((2-(2,6-dioxopiperidin-3-yl)-1-oxoisoindolin-4-yl)glycyl)piperidine-4-carboxamide] | 200 to 1000 | 200 to 1000
Cn1c(=O)n(C2CCC(=O)NC2=O)c2ccc(C3CCN(CCC(=O)N4CC=C(c5ccc6cc(O)c(N7CC(=O)NS7(=O)=O)c(F)c6c5)C4)CC3)cc21 (stereo not drawn) [Example 89, 3-[5-[1-[3-[3-[8-fluoro-6-hydroxy-7-(1,1,4-trioxo-1,2,5-thiadiazolidin-2-yl)-2-naphthyl]-2,5-dihydropyrrol-1-yl]-3-oxo-propyl]-4-piperidyl]-3-methyl-2-oxo-benzimidazol-1-yl]piperidine-2,6-dione] | 50 to 200 | 50 to 200
Cn1c(=O)n(C2CCC(=O)NC2=O)c2ccc(N3CCC4(CC3)CN(C(=O)c3ccc5c(F)c(N6CC(=O)NS6(=O)=O)c(O)cc5c3)C4)cc21 (stereo not drawn) [Example 56] | ≥ 1000 | 200 to 1000
O=C1CCC(N2Cc3cc(OCc4cn(CCC(=O)Nc5ccc6c(F)c(N7CC(=O)NS7(=O)=O)c(O)cc6c5)nn4)ccc3C2=O)C(=O)N1 (stereo not drawn) [Example 20, 3-[4-[[2-(2,6-dioxo-3-piperidyl)-1-oxo-isoindolin-5-yl]oxymethyl]triazol-1-yl]-N-[5-fluoro-7-hydroxy-6-(1,1,4-trioxo-1,2,5-thiadiazolidin-2-yl)-2-naphthyl]propanamide] | 50 to 200 | 50 to 200
Cn1c(=O)n(C2CCC(=O)NC2=O)c2ccc(C3CCN([C@@H](CO)C(=O)Nc4ccc5c(F)c(N6CC(=O)NS6(=O)=O)c(O)cc5c4)CC3)cc21 (stereo partly drawn) [Example 184, (2S)—N-(6-(1,1-dioxido-4-oxo-1,2,5-thiadiazolidin-2-yl)-5-fluoro-7-hydroxynaphthalen-2-yl)-2-(4-(1-(2,6-dioxopiperidin-3-yl)-3-methyl-2-oxo-2,3-dihydro-1H-benzo[d]imidazol-5-yl)piperidin-1-yl)-3-hydroxypropanamide] | 10 to 50 | 50 to 200
Cn1c(=O)n(C2CCC(=O)NC2=O)c2ccc(C3CN(CC(=O)NCCOc4ccc5cc(O)c(N6CC(=O)NS6(=O)=O)c(F)c5c4)C3)cc21 (stereo not drawn) [Example 161, 2-[3-[1-(2,6-dioxo-3-piperidyl)-3-methyl-2-oxo-benzimidazol-5-yl]azetidin-1-yl]-N-[2-[[8-fluoro-6-hydroxy-7-(1,1,4-trioxo-1,2,5-thiadiazolidin-2-yl)-2-naphthyl]oxy]ethyl]acetamide] | 200 to 1000 | 200 to 1000
O=C(CCCCCn1cc(CNc2cccc3c2C(=O)N(C2CCC(=O)NC2=O)C3=O)nn1)NCCOc1ccc2cc(O)c(N3CC(=O)NS3(=O)=O)c(Cl)c2c1 (stereo not drawn) [Example 49] | ≥ 1000 | 
O=C(CCOCCn1cc(CNc2cccc3c2C(=O)N(C2CCC(=O)NC2=O)C3=O)nn1)NCCOc1ccc2cc(O)c(N3CC(=O)NS3(=O)=O)cc2c1 (stereo not drawn) [Example 50] | ≥ 1000 | 
